From patent US9227971B2, “Pyrazolo[1,5-a]pyrimidine compounds as mTOR inhibitors” (Merck Sharp & Dohme Corp., priority 2010, dated 2016)
Read-outs that look alike come from different tables or passages of the source.

Experiments:
[1] = test system: phosphorylated 4E-BP1 Thr37/46 (p4E-BP1 Thr37/46), mTORC1 activity, PC3 cells; assay: mTOR target engagement assay, immunofluorescent cell-based, p4E-BP1 Thr37/46 readout (mTORC1 activity); settings: Homo sapiens, read-out: p4E-BP1 Thr37/46 IC50
Method in brief: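 Seed PC3 cells overnight; treat with compound dilutions for ninety minutes at 37° C; fix with glyoxal and block; stain with anti-p4E-BP1 Thr37/46 overnight at 4° C, then fluorescent secondary; read fluorescence and fit IC50 against DMSO-only controls.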

[2] = test system: phosphorylated AKT Ser473 (pAKT S473), mTORC2 activity, PC3 cells; assay: mTOR target engagement assay, immunofluorescent cell-based, pAKT S473 readout (mTORC2 activity); settings: Homo sapiens
Method in brief: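 After blocking, cells were stained overnight at 4 °C with anti-pAKT S473 antibody, then a fluorescent secondary; inhibition was read as reduced fluorescence intensity.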

[3] = PC-3, PC3 cells, compound treatment ninety minutes at 37° C.

Structure (SMILES) | IC50 [1, 3] [nM] | IC50 [2, 3] [nM] | IC50 ([1]; PC-3, Table 3-1, PC3 cells) [nM] | IC50 ([2]; PC-3, Table 3-1, PC3 cells) [nM]
Nc1cc([C@@H]2C[C@H]3CC[C@@H](C2)N3C(=O)c2nnc[nH]2)nc2c(-c3cnc4[nH]ccc4c3)cnn12 [Compound 2.13, ((1R,3s,5S)-3-(7-amino-3-(1H-pyrrolo[2,3-b]pyridin-5-yl)pyrazolo[1,5-a]pyrimidin-5-yl)-8-azabicyclo[3.2.1]octan-8-yl)(1H-1,2,4-triazol-5-yl)methanone] | 1000 to 10000 | 1000 to 10000 |  | 
Nc1cc([C@@H]2C[C@H]3CC[C@@H](C2)N3C(=O)c2nnc[nH]2)nc2c(-c3ccc(-c4ccccc4F)nc3)cnn12 [Compound 2.16, ((1R,3s,5S)-3-(7-amino-3-(6-(2-fluorophenyl)pyridin-3-yl)pyrazolo[1,5-a]pyrimidin-5-yl)-8-azabicyclo[3.2.1]octan-8-yl)(4H-1,2,4-triazol-3-yl)methanone] | 100 to 1000 | 100 to 1000 |  | 
Nc1cc([C@@H]2C[C@H]3CC[C@@H](C2)N3C(=O)c2nnc[nH]2)nc2c(-c3ccc(-c4ccc(C(F)(F)F)cc4F)nc3)cnn12 [Compound 2.17, ((1R,3s,5S)-3-(7-amino-3-(6-(2-fluoro-4-(trifluoromethyl)phenyl)pyridin-3-yl)pyrazolo[1,5-a]pyrimidin-5-yl)-8-azabicyclo[3.2.1]octan-8-yl)(4H-1,2,4-triazol-3-yl)methanone] | 1000 to 10000 | 1000 to 10000 |  | 
Nc1cc([C@@H]2C[C@H]3CC[C@@H](C2)N3C(=O)[C@H]2CCCN2)nc2c(-c3ccc(-c4ccccc4)nc3)cnn12 [Compound 2.19, ((1R,3S,5S)-3-(7-amino-3-(6-phenylpyridin-3-yl)pyrazolo[1,5-a]pyrimidin-5-yl)-8-azabicyclo[3.2.1]octan-8-yl)((R)-pyrrolidin-2-yl)methanone] | 1000 to 10000 | 100 to 1000 |  | 
Nc1cc([C@@H]2C[C@H]3CC[C@@H](C2)N3C(=O)[C@@H]2CCCN2)nc2c(-c3ccc(-c4ccccc4)nc3)cnn12 [Compound 2.20] | 1000 to 10000 | 1000 to 10000 |  | 
Nc1cc([C@@H]2C[C@H]3CC[C@@H](C2)N3)nc2c(-c3ccc(-c4ccccc4)nc3)cnn12 [Compound 2.23, 5-((1R,3s,5S)-8-azabicyclo[3.2.1]octan-3-yl)-3-(6-phenylpyridin-3-yl)pyrazolo[1,5-a]pyrimidin-7-amine] | 1000 to 10000 | 1000 to 10000 |  | 
CS(=O)(=O)c1c([C@@H]2C[C@H]3CC[C@@H](C2)N3C(=O)CO)nc2c(-c3ccc(-c4ccccc4)nc3)cnn2c1N [Compound 3.1, 1-((1R,3s,5S)-3-(7-amino-6-(methylsulfonyl)-3-(6-phenylpyridin-3-yl)pyrazolo[1,5-a]pyrimidin-5-yl)-8-azabicyclo[3.2.1]octan-8-yl)-2-hydroxyethanone] |  |  | 100 to 1000 | 1 to 100
CS(=O)(=O)c1c([C@@H]2C[C@H]3CC[C@@H](C2)N3C(=O)c2nc[nH]n2)nc2c(-c3ccc(-c4ccccc4)nc3)cnn2c1N [Compound 3.2, ((1R,3s,5S)-3-(7-amino-6-(methylsulfonyl)-3-(6-phenylpyridin-3-yl)pyrazolo[1,5-a]pyrimidin-5-yl)-8-azabicyclo[3.2.1]octan-8-yl)(1H-1,2,4-triazol-3-yl)methanone] |  |  | 1 to 100 | 1 to 100
CS(=O)(=O)c1c([C@@H]2C[C@H]3CC[C@@H](C2)N3C(=O)c2cnn[nH]2)nc2c(-c3ccc(-c4ccccc4)nc3)cnn2c1N [Compound 3.3, ((1R,3s,5S)-3-(7-amino-6-(methylsulfonyl)-3-(6-phenylpyridin-3-yl)pyrazolo[1,5-a]pyrimidin-5-yl)-8-azabicyclo[3.2.1]octan-8-yl)(1H-1,2,3,-triazol-5-yl)methanone] |  |  | 100 to 1000 | 1 to 100
Cc1n[nH]c(C(=O)N2[C@@H]3CC[C@H]2C[C@H](c2nc4c(-c5ccc(-c6ccccc6)nc5)cnn4c(N)c2S(C)(=O)=O)C3)n1 [Compound 3.4, ((1R,3s,5S)-3-(7-amino-6-(methylsulfonyl)-3-(6-phenylpyridin-3-yl)pyrazolo[1,5-a]pyrimidin-5-yl)-8-azabicyclo[3.2.1]octan-8-yl)(3-methyl-1H-1,2,4-triazol-5-yl)methanone] |  |  | 1 to 100 | 1 to 100
CS(=O)(=O)c1c([C@@H]2C[C@H]3CC[C@@H](C2)N3C(=O)c2nnn[nH]2)nc2c(-c3ccc(-c4ccccc4)nc3)cnn2c1N [Compound 3.5, ((1R,3s,5S)-3-(7-amino-6-(methylsulfonyl)-3-(6-phenylpyridin-3-yl)pyrazolo[1,5-a]pyrimidin-5-yl)-8-azabicyclo[3.2.1]octan-8-yl)(1H-tetrazol-5-yl)methanone] |  |  | > 10000 | 1000 to 10000
CS(=O)(=O)c1c(C2CC3CCC(C2)N3C(=O)c2nnc[nH]2)nc2c(-c3ccc(-c4ccccc4)[n+]([O-])c3)cnn2c1N [Compound 3.6, 5-(5-((1R,3s,5S)-8-(1H-1,2,4-triazole-3-carbonyl)-8-azabicyclo[3.2.1]octan-3-yl)-7-amino-6-(methylsulfonyl)pyrazolo[1,5-a]pyrimidin-3-yl)-2-phenylpyridine 1-oxide] |  |  | 100 to 1000 | 100 to 1000
CS(=O)(=O)c1c([C@@H]2C[C@H]3CC[C@@H](C2)N3C(=O)[C@H](O)CO)nc2c(-c3ccc(-c4ccccc4)nc3)cnn2c1N [Compound 3.7, (R)-1-((1R,3S,5S)-3-(7-amino-6-(methylsulfonyl)-3-(6-phenylpyridin-3-yl)pyrazolo[1,5-a]pyrimidin-5-yl)-8-azabicyclo[3.2.1]octan-8-yl)-2,3-dihydroxypropan-1-one] |  |  | 1000 to 10000 | 100 to 1000
CCNC(=O)N1[C@@H]2CC[C@H]1C[C@H](c1nc3c(-c4ccc(-c5ccccc5)nc4)cnn3c(N)c1S(C)(=O)=O)C2 [Compound 3.8, (1R,3s,5S)-3-(7-amino-6-(methylsulfonyl)-3-(6-phenylpyridin-3-yl)pyrazolo[1,5-a]pyrimidin-5-yl)-N-ethyl-8-azabicyclo[3.2.1]octane-8-carboxamide] |  |  | 100 to 1000 | 100 to 1000
CS(=O)(=O)c1c([C@@H]2C[C@H]3CC[C@@H](C2)N3C(N)=O)nc2c(-c3ccc(-c4ccccc4)nc3)cnn2c1N [Compound 3.10, (1R,3s,5S)-3-(7-amino-6-(methylsulfonyl)-3-(6-phenylpyridin-3-yl)pyrazolo[1,5-a]pyrimidin-5-yl)-8-azabicyclo[3.2.1]octane-8-carboxamide] |  |  | 1 to 100 | 1 to 100
CS(=O)(=O)c1c([C@@H]2C[C@H]3CC[C@@H](C2)N3C(=O)NC2CC2)nc2c(-c3ccc(-c4ccccc4)nc3)cnn2c1N [Compound 3.11, (1R,3s,5S)-3-(7-amino-6-(methylsulfonyl)-3-(6-phenylpyridin-3-yl)pyrazolo[1,5-a]pyrimidin-5-yl)-N-cyclopropyl-8-azabicyclo[3.2.1]octane-8-carboxamide] |  |  | 1000 to 10000 | 100 to 1000
CS(=O)(=O)c1c([C@@H]2C[C@H]3CC[C@@H](C2)N3C(=O)C2(O)CC2)nc2c(-c3ccc(-c4ccccc4)nc3)cnn2c1N [Compound 3.12, ((1R,3s,5S)-3-(7-amino-6-(methylsulfonyl)-3-(6-phenylpyridin-3-yl)pyrazolo[1,5-a]pyrimidin-5-yl)-8-azabicyclo[3.2.1]octan-8-yl)(1-hydroxycyclopropyl)methanone] |  |  | 1000 to 10000 | 100 to 1000
CS(=O)(=O)c1c([C@@H]2C[C@H]3CC[C@@H](C2)N3C(=O)c2ncccc2O)nc2c(-c3ccc(-c4ccccc4)nc3)cnn2c1N [Compound 3.13] |  |  | 100 to 1000 | 100 to 1000
CS(=O)(=O)c1c([C@@H]2C[C@H]3CC[C@@H](C2)N3C(=O)c2cc(O)ccn2)nc2c(-c3ccc(-c4ccccc4)nc3)cnn2c1N [Compound 3.14, ((1R,3s,5S)-3-(7-amino-6-(methylsulfonyl)-3-(6-phenylpyridin-3-yl)pyrazolo[1,5-a]pyrimidin-5-yl)-8-azabicyclo[3.2.1]octan-8-yl)(4-hydroxypyridin-2-yl)methanone] |  |  | 1000 to 10000 | 100 to 1000
CS(=O)(=O)c1c([C@@H]2C[C@H]3CC[C@@H](C2)N3C(=O)C(O)C(F)(F)F)nc2c(-c3ccc(-c4ccccc4)nc3)cnn2c1N (stereo partly drawn) [Compound 3.15, 1-((1R,3s,5S)-3-(7-amino-6-(methylsulfonyl)-3-(6-phenylpyridin-3-yl)pyrazolo[1,5-a]pyrimidin-5-yl)-8-azabicyclo[3.2.1]octan-8-yl)-3,3,3-trifluoro-2-hydroxypropan-1-one] |  |  | 1000 to 10000 | 1000 to 10000
CS(=O)(=O)c1c([C@@H]2C[C@H]3CC[C@@H](C2)N3C(=O)c2ccc(O)cn2)nc2c(-c3ccc(-c4ccccc4)nc3)cnn2c1N [Compound 3.16, ((1R,3s,5S)-3-(7-amino-6-(methylsulfonyl)-3-(6-phenylpyridin-3-yl)pyrazolo[1,5-a]pyrimidin-5-yl)-8-azabicyclo[3.2.1]octan-8-yl)(5-hydroxypyridin-2-yl)methanone] |  |  | 100 to 1000 | 1 to 100
CNC(=O)c1ccc(-c2cnn3c(N)c(S(C)(=O)=O)c([C@@H]4C[C@H]5CC[C@@H](C4)N5C(=O)c4nc[nH]n4)nc23)cn1 [Compound 3.17, 5-(5-((1R,3s,5S)-8-(1H-1,2,4-triazole-3-carbonyl)-8-azabicyclo[3.2.1]octan-3-yl)-7-amino-6-(methylsulfonyl)pyrazolo[1,5-a]pyrimidin-3-yl)-N-methylpicolinamide] |  |  | 1000 to 10000 | > 10000
